The structures appear in SMILES notation.

The target of the first assay is human PAD4 (hPAD4) (Homo sapiens, UniProt Q9UM07). The experiment in a line: RFMS Human PAD4 Functional Assay. The format is biochemical. As to conditions: hPAD4 RFMS IC50, human PAD4, rapid-fire mass spectrum (RFMS) assay; 5 nM hPAD4, 250 μM BAEE. The method in brief: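 RapidFire ESI-MS quantification, normalised to a modified-citrulline internal standard, after phenyl glyoxal (final 4 mM) derivatisation of the TCA-quenched reaction. The enzyme (10 nM) sat 30 min with compound (up to 50 μM final) before 500 μM BAEE (as added) started a 90 min, 37 °C reaction. Buffer: HEPES pH 7.5, 50 μM calcium, 5 μM TPEN.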
human PAD4 (hPAD4), sequence (Q9UM07 whole entry): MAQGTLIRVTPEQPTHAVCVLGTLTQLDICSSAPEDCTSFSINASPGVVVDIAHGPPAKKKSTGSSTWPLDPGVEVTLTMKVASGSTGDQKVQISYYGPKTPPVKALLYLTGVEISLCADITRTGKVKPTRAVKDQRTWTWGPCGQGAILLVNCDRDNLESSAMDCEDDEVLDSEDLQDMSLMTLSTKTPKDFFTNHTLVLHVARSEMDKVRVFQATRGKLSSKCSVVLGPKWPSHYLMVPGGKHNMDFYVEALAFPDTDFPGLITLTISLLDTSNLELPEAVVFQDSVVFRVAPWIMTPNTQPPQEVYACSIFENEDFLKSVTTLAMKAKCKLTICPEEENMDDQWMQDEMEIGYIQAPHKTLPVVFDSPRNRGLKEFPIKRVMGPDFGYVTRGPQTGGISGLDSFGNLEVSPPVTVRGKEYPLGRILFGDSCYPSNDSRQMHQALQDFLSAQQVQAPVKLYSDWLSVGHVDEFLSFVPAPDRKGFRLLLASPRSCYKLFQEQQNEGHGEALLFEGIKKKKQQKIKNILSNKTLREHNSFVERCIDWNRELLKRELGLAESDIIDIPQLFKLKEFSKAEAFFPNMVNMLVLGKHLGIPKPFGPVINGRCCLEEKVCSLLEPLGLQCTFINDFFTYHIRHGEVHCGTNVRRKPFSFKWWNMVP
In turn, `COc1cc(C(=O)N2C[C@H]3CC[C@@H]2[C@@H]3N)cc2nc(-c3cc4cccc(NCCC(C)(C)O)c4n3CC3CC3)n(C)c12` [Example 169, ((1R,4R,7R)-7-amino-2-azabicyclo[2.2.1]heptan-2-yl)(2-(1-(cyclopropylmethyl)-7-((3-hydroxy-3-methylbutyl)amino)-1H-indol-2-yl)-7-methoxy-1-methyl-1H-benzo[d]imidazol-5-yl)methanone] displayed an IC50 of 198 nM. `COc1cc(C(=O)N2C[C@H]3CC[C@@H]2[C@@H]3N)cc2nc(-c3cc4cccc(NC5CCN(C)CC5)c4n3CC3CC3)n(C)c12` [Example 170, ((1R,4R,7R)-7-amino-2-azabicyclo[2.2.1]heptan-2-yl)(2-(1-(cyclopropylmethyl)-7-((1-methylpiperidin-4-yl)amino)-1H-indol-2-yl)-7-methoxy-1-methyl-1H-benzo[d]imidazol-5-yl)methanone]: the IC50 amounted to 59 nM.

`COc1cc(C(=O)N2C[C@H]3CC[C@@H]2[C@@H]3N)cc2nc(-c3cc4cccc(Nc5cnn(C)c5)c4n3CC3CC3)n(C)c12` [Example 171, ((1R,4R,7R)-7-amino-2-azabicyclo[2.2.1]heptan-2-yl)(2-(1-(cyclopropylmethyl)-7-((1-methyl-1H-pyrazol-4-yl)amino)-1H-indol-2-yl)-7-methoxy-1-methyl-1H-benzo[d]imidazol-5-yl)methanone]: the IC50 worked out at 96 nM. `COc1cc(C(=O)N2C[C@H]3CC[C@@H]2[C@@H]3N)cc2nc(-c3cc4cccc(Nc5c(C)n[nH]c5C)c4n3CC3CC3)n(C)c12` [Example 172, ((1R,4R,7R)-7-amino-2-azabicyclo[2.2.1]heptan-2-yl)(2-(1-(cyclopropylmethyl)-7-((3,5-dimethyl-1H-pyrazol-4-yl)amino)-1H-indol-2-yl)-7-methoxy-1-methyl-1H-benzo[d]imidazol-5-yl)methanone]: half-maximal inhibition (IC50) was put at 43 nM. On the same count and under the same terms, next, `COc1cc(C(=O)N2C[C@H]3CC[C@@H]2[C@@H]3N)cc2nc(-c3cc4cccc(Nc5cn(C)nc5C)c4n3CC3CC3)n(C)c12` [Example 173, ((1R,4R,7R)-7-amino-2-azabicyclo[2.2.1]heptan-2-yl)(2-(1-(cyclopropylmethyl)-7-((1,3-dimethyl-1H-pyrazol-4-yl)amino)-1H-indol-2-yl)-7-methoxy-1-methyl-1H-benzo[d]imidazol-5-yl)methanone]: 42 nM. `COc1cc(C(=O)N2C[C@H]3CC[C@@H]2[C@@H]3N)cc2nc(-c3cc4cccc(Nc5c(C)nn(C)c5C)c4n3CC3CC3)n(C)c12` [Example 174, ((1R,4R,7R)-7-amino-2-azabicyclo[2.2.1]heptan-2-yl)(2-(1-(cyclopropylmethyl)-7-((1,3,5-trimethyl-1H-pyrazol-4-yl)amino)-1H-indol-2-yl)-7-methoxy-1-methyl-1H-benzo[d]imidazol-5-yl)methanone] gave an IC50 of 41 nM. Consider `COc1cc(C(=O)N2C[C@H]3CC[C@@H]2[C@@H]3N)cc2nc(-c3cc4cccc(Nc5cnn(CC(F)F)c5)c4n3CC3CC3)n(C)c12` [Example 175, ((1R,4R,7R)-7-amino-2-azabicyclo[2.2.1]heptan-2-yl)(2-(1-(cyclopropylmethyl)-7-((1-(2,2-difluoroethyl)-1H-pyrazol-4-yl)amino)-1H-indol-2-yl)-7-methoxy-1-methyl-1H-benzo[d]imidazol-5-yl)methanone], for which the IC50 turned out to be 66 nM. On the same count and under the same terms, as for `COc1cc(C(=O)N2C[C@H]3CC[C@@H]2[C@@H]3N)cc2nc(-c3cc4cccc(Nc5c(C)nn(C)c5C)c4n3CC3CC3(Cl)Cl)n(C)c12` (stereo partly drawn) [Example 176, ((1R,4R,7R)-7-amino-2-azabicyclo[2.2.1]heptan-2-yl)(2-(1-((2,2-dichlorocyclopropyl)meth-yl)-7-((1,3,5-trimethyl-1H-pyrazol-4-yl)amino)-1H-indol-2-yl)-7-methoxy-1-methyl-1H-benzo[d]imidazol-5-yl)methanone], the figure is 76 nM; as for `COc1cc(C(=O)N2C[C@H]3CC[C@@H]2[C@@H]3N)cc2nc(-c3cc4cccc(Nc5cn(C)nc5C)c4n3CC3CC3C)n(C)c12` (stereo partly drawn) [Example 177, ((1R,4R,7R)-7-amino-2-azabicyclo[2.2.1]heptan-2-yl)(2-(7-((1,3-dimethyl-1H-pyrazol-4-yl)amino)-1-((2-methylcyclopropyl)meth-yl)-1H-indol-2-yl)-7-methoxy-1-methyl-1H-benzo[d]imidazol-5-yl)methanone], 40 nM; as for `COc1cc(C(=O)N2C[C@H]3CC[C@@H]2[C@@H]3N)cc2nc(-c3cc4cccc(Nc5cn(C)nc5C)c4n3CC3CC3(F)F)n(C)c12` (stereo partly drawn) [Example 178, ((1R,4R,7R)-7-amino-2-azabicyclo[2.2.1]heptan-2-yl)(2-(1-((2,2-difluorocyclopropyl)meth-yl)-7-((1,3-dimethyl-1H-pyrazol-4-yl)amino)-1H-indol-2-yl)-7-methoxy-1-methyl-1H-benzo[d]imidazol-5-yl)methanone], 56 nM. `COc1cc(C(=O)N2C[C@H]3CC[C@@H]2[C@@H]3N)cc2nc(-c3cc4cccc(Nc5cn(C)nc5C)c4n3CC3CC3(Cl)Cl)n(C)c12` (stereo partly drawn) [Example 179, ((1R,4R,7R)-7-amino-2-azabicyclo[2.2.1]heptan-2-yl)(2-(1-((2,2-dichlorocyclopropyl)meth-yl)-7-((1,3-dimethyl-1H-pyrazol-4-yl)amino)-1H-indol-2-yl)-7-methoxy-1-methyl-1H-benzo[d]imidazol-5-yl)methanone] yielded an IC50 of 24 nM.

As for `COc1cc(C(=O)N2C[C@H]3CC[C@@H]2[C@@H]3N)cc2nc(-c3cc4cccc(Nc5c(C)nn(C)c5C)c4n3CC3CC3C)n(C)c12` (stereo partly drawn) [Example 180, ((1R,4R,7R)-7-amino-2-azabicyclo[2.2.1]heptan-2-yl)(7-methoxy-1-methyl-2-(1-((2-methylcyclopropyl)meth-yl)-7-((1,3,5-trimethyl-1H-pyrazol-4-yl)amino)-1H-indol-2-yl)-1H-benzo[d]imidazol-5-yl)methanone], the IC50 was 27 nM. The molecule `COc1cc(C(=O)N2C[C@H]3CC[C@@H]2[C@@H]3N)cc2nc(-c3cc4cccc(-c5ccc6c(c5)C(F)(F)C(=O)N6)c4n3CC3CC3)n(C)c12` [Example 190, 5-(2-(5-((1R,4R,7R)-7-amino-2-azabicyclo[2.2.1]heptane-2-carbonyl)-7-methoxy-1-methyl-1H-benzo[d]imidazol-2-yl)-1-(cyclopropylmethyl)-1H-indol-7-yl)-3,3-difluoroindolin-2-one] gave a concentration for half-maximal inhibition (IC50) of 85 nM.

Staying with this assay, now noted: human PAD4, rapid-fire mass spectrum (RFMS) assay; 5 nM hPAD4, 250 μM BAEE; read-out: hPAD4 RFMS IC50.
In the case of `COc1cc(C(=O)N2C[C@H]3CC[C@@H]2[C@@H]3N)cc2nc(-c3cc4cccc(-c5ccccc5CO)c4n3CC3CC3)n(C)c12` [Example 181, ((1R,4R,7R)-7-amino-2-azabicyclo[2.2.1]heptan-2-yl)(2-(1-(cyclopropylmethyl)-7-(2-(hydroxymethyl)phenyl)-1H-indol-2-yl)-7-methoxy-1-methyl-1H-benzo[d]imidazol-5-yl)methanone], the IC50 was found to be 127 nM.

With `COc1cc(C(=O)N2C[C@H]3CC[C@@H]2[C@@H]3N)cc2nc(-c3cc4cccc(C#N)c4n3CC3CC3)n(C)c12` [Example 183, 2-(5-((1R,4R,7R)-7-amino-2-azabicyclo[2.2.1]heptane-2-carbonyl)-7-methoxy-1-methyl-1H-benzo[d]imidazol-2-yl)-1-(cyclopropylmethyl)-1H-indole-7-carbonitrile], the IC50 was 128 nM.

Consider `COc1cc(C(=O)N2C[C@H]3CC[C@@H]2[C@@H]3N)cc2nc(-c3cc4cccc(C(N)=O)c4n3CC3CC3)n(C)c12` [Example 184, 2-(5-((1R,4R,7R)-7-Amino-2-azabicyclo[2.2.1]heptane-2-carbonyl)-7-methoxy-1-methyl-1H-benzo[d]imidazol-2-yl)-1-(cyclopropylmethyl)-1H-indole-7-carboxamide], for which the IC50 amounted to 74 nM. As for `COc1cc(C(=O)N2C[C@H](N)C[C@@H](F)C2)cc2nc(-c3cc4cccc(OC)c4n3CC3CC3)n(C)c12` [Example 185, ((3R,5R)-3-amino-5-fluoropiperidin-1-yl)(2-(1-(cyclopropylmethyl)-7-methoxy-1H-indol-2-yl)-7-methoxy-1-methyl-1H-benzo[d]imidazol-5-yl)methanone], the IC50 is 133 nM. In the case of `COc1cc(C(=O)N2C[C@H]3CC[C@@H]2[C@@H]3N)cc2nc(-c3cc4cccc(C5CCN(C(=O)Nc6ccccc6)CC5)c4n3CC3CC3)n(C)c12` [Example 187, 4-(2-(5-((1R,4R,7R)-7-amino-2-azabicyclo[2.2.1]heptane-2-carbonyl)-7-methoxy-1-methyl-1H-benzo[d]imidazol-2-yl)-1-(cyclopropylmethyl)-1H-indol-7-yl)-N-phenylpiperidine-1-carboxamide], the IC50 is 18 nM. On to `COc1cc(C(=O)N2C[C@H]3CC[C@@H]2[C@@H]3N)cc2nc(-c3cc4cccc(C5CCN(C(=O)N(C)C)CC5)c4n3CC3CC3)n(C)c12` [Example 188, 4-(2-(5-((1R,4R,7R)-7-amino-2-azabicyclo[2.2.1]heptane-2-carbonyl)-7-methoxy-1-methyl-1H-benzo[d]imidazol-2-yl)-1-(cyclopropylmethyl)-1H-indol-7-yl)-N,N-dimethylpiperidine-1-carboxamide], for which the IC50 worked out at 27 nM. Take `COc1cc(C(=O)N2C[C@H](N)C[C@@H](F)C2)cc2nc(-c3cc4cccc(C5CCN(C(C)=O)CC5)c4n3CC3CC3)n(Cc3cnn(C)c3)c12` [Example 189, 1-(4-(2-(5-((3R,5R)-3-amino-5-fluoropiperidine-1-carbonyl)-7-methoxy-1-((1-methyl-1H-pyrazol-4-yl)methyl)-1H-benzo[d]imidazol-2-yl)-1-(cyclopropylmethyl)-1H-indol-7-yl)piperidin-1-yl)ethan-1-one]: the IC50 amounted to 18 nM.

Broadly, the IC50 is the concentration that inhibits the measured activity by half.

(Values after patent US20220402950A1, “SUBSTITUTED BENZIMIDAZOLES AS PAD4 INHIBITORS” (BRISTOL-MYERS SQUIBB COMPANY, priority 2018, published 2022).)
